Experimental data as given in patent US20220378756A1, “ACTIVATING PYRUVATE KINASE R” (FORMA Therapeutics, Inc., priority 2019, published 2022).

Test system: 2,3-DPG, ATP and p50 in blood
Test: Phase 1 SAD/MAD, healthy volunteers: pharmacodynamics
Type: in vivo, human
Conditions: for Median Percentage Change in 2,3-DPG Levels: HV
Excerpt: This is a first-in-human (FIH), Phase 1 study of Compound 1 that will characterize the safety, PK, and PD of Compound 1 after a single dose and after repeated dosing first in healthy adult volunteers and then in adolescents or adults with sickle cell disease. Initially, a dose range of Compound 1 in single ascending dose (SAD) escalation cohorts will be explored in healthy subjects. Enrollment of healthy subjects into 2-week multiple ascending dose (MAD) escalation cohorts will be initiated once the safety and PK from at least two SAD cohorts is available to inform the doses for the 2-week MAD portion of the study. The MAD cohorts will then run in parallel to the single dose cohorts. A single dose cohort is planned to understand food effects (FE) on the PK of Compound 1. […] Multiple dose studies in SCD subjects will then be initiated upon completion of MAD studies in healthy volunteers. Compound 1 will be administered in 25 mg and 100 mg tablets delivered orally.
In this study, SAD/MAD cohorts are randomized (3 to 1) to receive Compound 1 or placebo (P). Compound 1 was evaluated first in 4 healthy SAD cohorts and 4 healthy MAD (14-day dosing period) cohorts. Based on the safety, and PK/PD profile from HS, Compound 1 is then evaluated in 1 SCD SAD cohort and 2 SCD MAD cohorts. Specifically, based on the safety and pharmacokinetic/pharmacodynamics (PK/PD) profile in healthy volunteer studies, Compound 1 is evaluated in patients (pts) with SCD, first in a single dose (SD or SAD) cohort and then in multiple-dose (MD or MAD) cohorts (14-day and 12-week). Safety assessments include AEs, vital signs, ECGs and laboratory parameters. PK/PD blood sampling was performed on Day 1 (SAD/MAD) and Day 14 (MAD) and up to 72 h after the last dose and at the end-of-study visit. PD parameters included 2,3-DPG, ATP, and p50 in all cohorts with additional PD studies (including oxygen scan) performed only in the SCD cohorts. PD parameters included 2,3-DPG, ATP, p50, RBC deformability with controlled deoxygenation and reoxygenation (Lorrca® oxygen scan) and varying osmolality (Lorrca® osmoscan)). To maintain study blind, pt identifiers were removed when needed.
Four healthy SAD cohorts were evaluated at doses of 200, 400, 700, and 1000 mg, and four healthy MAD cohorts received 200 to 600 mg total daily doses for 14 days at QD or BID dosing (100 mg BID, 200 mg BID, 300 mg BID, and 400 mg QD). In the food effect (FE) cohort, 10 healthy subjects received 200 mg of Compound 1 QD with and without food.
In the SAD cohorts, the subjects' blood 2,3-DPG levels were measured periodically after dosing by a qualified LC-MS/MS method for the quantitation of 2,3-DPG in blood. Decreased 2,3-DPG blood levels were observed 6 hours following a single dose of Compound 1 at all dose levels (earlier timepoints were not collected). Maximum decreases in 2,3-DPG levels generally occurred ˜24 hours after the first dose with the reduction sustained ˜48-72 hr postdose. Table 16 reports the median percentage change in 2,3-DPG blood levels, relative to baseline, measured over time in healthy volunteers after a single dose of Compound 1 (200 mg, 400 mg, 700 mg, or 1000 mg) or placebo. Accordingly, the median reduction in the concentration of 2,3-DPG, relative to baseline, was at least about […] at all dose levels tested 24 hours after administration of the single dose.
In the MAD cohorts, the subjects' blood 2,3-DPG levels were measured periodically after dosing by a qualified LC-MS/MS method for the quantitation of 2,3-DPG in blood. The maximum decrease in 2,3-DPG on Day 14 was 55% from baseline (median). […] Table 18 reports the median percentage change in 2,3-DPG blood levels, relative to baseline, measured over time after the first dose on days 1 and 14 in healthy volunteers who received daily doses of Compound 1 (100 mg BID, 200 mg BID, or 300 mg BID) or placebo for 14 days. […]

[1] = MAD, N = 36, all doses and timepoints
[2] = SAD, N = 24, all doses and timepoints

O=C([C@H](CO)c1ccccc1)N1CC2=C(C1)CN(S(=O)(=O)c1cnc3c(c1)OCCO3)C2 (single isomer, unassigned) [Compound 1]
Median Percentage Change in 2,3-DPG Levels (300 mg BID, Day 1, 16 h after first daily dose): −40.7%
Median Percentage Change in 2,3-DPG Levels (300 mg BID, Day 1, 24 h after first daily dose): −50.8%
Median Percentage Change in 2,3-DPG Levels (300 mg BID, Day 14, 0 h after first daily dose): −59.4%
Median Percentage Change in 2,3-DPG Levels (300 mg BID, Day 14, 6 h after first daily dose): −53.0%
Median Percentage Change in 2,3-DPG Levels (300 mg BID, Day 14, 8 h after first daily dose): −54.2%
Median Percentage Change in 2,3-DPG Levels (300 mg BID, Day 14, 12 h after first daily dose): −55.3%
Median Percentage Change in 2,3-DPG Levels (300 mg BID, Day 14, 16 h after first daily dose): −52.4%
Median Percentage Change in 2,3-DPG Levels (300 mg BID, Day 14, 24 h after first daily dose): −52.1%
Median Percentage Change in 2,3-DPG Levels (300 mg BID, Day 14, 48 h after first daily dose): −44.5%
Median Percentage Change in 2,3-DPG Levels (300 mg BID, Day 14, 72 h after first daily dose): −32.9%
Median Percentage Change in 2,3-DPG Levels (single dose 200 mg, 0 h after dose): 0.0%
Median Percentage Change in 2,3-DPG Levels (single dose 200 mg, 6 h after dose): −18%
Median Percentage Change in 2,3-DPG Levels (single dose 200 mg, 8 h after dose): −17%
Median Percentage Change in 2,3-DPG Levels (single dose 200 mg, 12 h after dose): −25%
Median Percentage Change in 2,3-DPG Levels (single dose 200 mg, 16 h after dose): −33%
Median Percentage Change in 2,3-DPG Levels (single dose 200 mg, 24 h after dose): −31%
Median Percentage Change in 2,3-DPG Levels (single dose 200 mg, 36 h after dose): −33%
Median Percentage Change in 2,3-DPG Levels (single dose 200 mg, 48 h after dose): −29%
Median Percentage Change in 2,3-DPG Levels (single dose 200 mg, 72 h after dose): −18%
Median Percentage Change in 2,3-DPG Levels (single dose 400 mg, 0 h after dose): 0.0%
Median Percentage Change in 2,3-DPG Levels (single dose 400 mg, 6 h after dose): −23%
Median Percentage Change in 2,3-DPG Levels (single dose 400 mg, 8 h after dose): −29%
Median Percentage Change in 2,3-DPG Levels (single dose 400 mg, 12 h after dose): −40%
Median Percentage Change in 2,3-DPG Levels (single dose 400 mg, 16 h after dose): −35%
Median Percentage Change in 2,3-DPG Levels (single dose 400 mg, 24 h after dose): −39%
Median Percentage Change in 2,3-DPG Levels (single dose 400 mg, 36 h after dose): −38%
Median Percentage Change in 2,3-DPG Levels (single dose 400 mg, 48 h after dose): −31%
Median Percentage Change in 2,3-DPG Levels (single dose 400 mg, 72 h after dose): −30%
Median Percentage Change in 2,3-DPG Levels (single dose 700 mg, 0 h after dose): 0.0%
Median Percentage Change in 2,3-DPG Levels (single dose 700 mg, 6 h after dose): −29%
Median Percentage Change in 2,3-DPG Levels (single dose 700 mg, 8 h after dose): −28%
Median Percentage Change in 2,3-DPG Levels (single dose 700 mg, 12 h after dose): −41%
Median Percentage Change in 2,3-DPG Levels (single dose 700 mg, 16 h after dose): −46%
Median Percentage Change in 2,3-DPG Levels (single dose 700 mg, 24 h after dose): −49%
Median Percentage Change in 2,3-DPG Levels (single dose 700 mg, 36 h after dose): −46%
Median Percentage Change in 2,3-DPG Levels (single dose 700 mg, 48 h after dose): −48%
Median Percentage Change in 2,3-DPG Levels (single dose 700 mg, 72 h after dose): −33%
Median Percentage Change in 2,3-DPG Levels (single dose 1000 mg, 0 h after dose): 0.0%
Median Percentage Change in 2,3-DPG Levels (single dose 1000 mg, 6 h after dose): −20%
Median Percentage Change in 2,3-DPG Levels (single dose 1000 mg, 8 h after dose): −31%
Median Percentage Change in 2,3-DPG Levels (single dose 1000 mg, 12 h after dose): −44%
Median Percentage Change in 2,3-DPG Levels (single dose 1000 mg, 16 h after dose): −50%
Median Percentage Change in 2,3-DPG Levels (single dose 1000 mg, 24 h after dose): −48%
Median Percentage Change in 2,3-DPG Levels (single dose 1000 mg, 36 h after dose): −47%
Median Percentage Change in 2,3-DPG Levels (single dose 1000 mg, 48 h after dose): −47%
Median Percentage Change in 2,3-DPG Levels (single dose 1000 mg, 72 h after dose): −21%
mean maximum reduction in the concentration of 2,3-DPG (MAD study): at least 50%
mean maximum reduction in the concentration of 2,3-DPG, range (MAD study): 46.1-63.6%
Mean Maximum Percent Change from Baseline, 2,3-DPG [1]: −56.3%
Mean Maximum Percent Change from Baseline, ATP [1]: 68.5%
mean maximum reduction in the concentration of 2,3-DPG (SAD study): at least 40%
mean maximum reduction in the concentration of 2,3-DPG, range (SAD study): 35.4-56.1%
Mean Maximum Percent Change from Baseline, 2,3-DPG [2]: −46.8%
Mean Maximum Percent Change from Baseline, ATP [2]: 24.4%
